Results taken from PubChem BioAssay (NCI).
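Cells were grown in 96-well plates and exposed to each compound for 48 hours at five concentrations; endpoints were interpolated linearly between bracketing concentrations, or set to the highest concentration if not reached. TGI: concentration producing complete growth inhibition.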

Columns and labels:
Assay in all cases: NCI anticancer screen, dose series, 48 h
HCT-15 colon = tested on: HCT-15 colon
SNB-19 CNS = tested on: SNB-19 CNS
U251 CNS = tested on: U251 CNS
SK-MEL-2 melanoma = tested on: SK-MEL-2 melanoma
HOP-62 NSCLC = tested on: HOP-62 NSCLC
HL-60(TB) leukemia = tested on: HL-60(TB) leukemia
SK-OV-3 ovarian = tested on: SK-OV-3 ovarian
MOLT-4 leukemia = tested on: MOLT-4 leukemia

Compound	TGI (HCT-15 colon) [µM]	TGI (SNB-19 CNS) [µM]	TGI (U251 CNS) [µM]	TGI (SK-MEL-2 melanoma) [µM]	TGI (HOP-62 NSCLC) [µM]	TGI (HL-60(TB) leukemia) [µM]	TGI (SK-OV-3 ovarian) [µM]	TGI (MOLT-4 leukemia) [µM]
CN(C)CCN1C(=O)N(CCN(C)C)c2c3cc(O)ccc3nc3c([N+](=O)[O-])ccc1c23	20.8	24.2	24.4	59.1				
O=C1CCC(CCc2nc3ccccc3[nH]2)(c2ccccc2)C(=O)N1 (configuration not stated)	> 100	> 100	> 100	> 100	> 100	> 100	> 100	
C=C1C[C@@H]2CC[C@@]34CC5O[C@H]6C(O[C@H]7CC[C@H](CC(=O)O[C@@H]8[C@@H](C)[C@@H]9O[C@@H]%10C[C@]%11(C[C@@H]%12O[C@]%13(C[C@H](C)[C@@H]%14O[C@@H]%15CC(C(COC(C)=O)OC(C)=O)O[C@@H]%15C[C@@H]%14O%13)C[C@H](C)[C@@H]%12O%11)O[C@@H]%10C[C@@H]9O[C@H]8CC8O[C@@H](CC[C@@H]1O2)C[C@@H](C)C8(O)CO)O[C@@H]7[C@@H]6O3)[C@H]5O4 (some centres not stated)	> 1	> 1	> 1	> 1	> 1		> 1	> 1
CC1OC2OC3C(OCC(O)C3O)OC(=O)[C@]34CCC(C)(C)CC3C3=CCC5[C@@]6(C)C[C@H](O)[C@H](OC7OC(CO)C(O)C(O)C7OC7OC(COC(=O)CC(C)(O)CC(=O)OC1C(OC1OC(CO)C(O)C(O)C1O)C2O)C(O)C(O)C7O)[C@@](C)(CO)C6CC[C@@]5(C)[C@]3(C)CC4 (some centres not stated)	15.7	16	9.26	3.37	3.13	3.13	22.4	12.7
Brc1ccc(/C(N=N/C(=N\Sc2ccccc2)c2ccc(Br)cc2)=N/Sc2ccccc2)cc1	> 100	> 100	> 100	> 100	> 100	> 100	> 100	> 100
C[N+]1(CCCCN2c3ccccc3Sc3cc(N=[N+]=[N-])ccc32)CCN(C(=O)CCNC(=O)Cc2ccc(C(=O)c3ccccc3)cc2)CC1	55.9	66.7	> 87.3	> 79.4	44.9	35.5	62	> 76.8
CC(C)NC(=O)OCc1c(COC(=O)NC(C)C)n(C)c2c1ccc1cc(Cl)c(Cl)cc12	28.7	26.6	29.3	32.2	28		63.3	27.9
COc1ccc2c(c1)-c1nc(=S)n(CCN(C)C)c3ccc([N+](=O)[O-])c(c13)N2	4.76	3.87	2.44	24.3	2.24		18	0.741
Brc1ccc2[nH]cc(-c3csc(-c4c[nH]c5ccc(Br)cc45)n3)c2c1	4.5	7.61	3.61	3.81	13.7	12.7	8.09	3.45
CC(=O)Oc1ccc2c(c1)O/C(=C\c1ccc(O)cc1)C2=O	> 100	> 100	> 100		> 100	> 100	> 100	> 100
COc1ccc(C(=O)/C=C/c2ccc(OCCCCCCCCCCOc3ccc(/C=C/C(=O)c4ccc(OC)c(OC)c4)cc3)cc2)c(OC)c1	> 100	> 100	> 100	> 100	> 100	> 100	> 100	> 100
Nc1cc2nc(-c3ccccc3)cn2cn1	> 100	> 100	> 100	> 100	> 100	> 100	> 100	> 100
